Assay results from US12611459B2, “System and method for unbinding of plasma protein-bound active agents using an ultrasound system” (The Brigham and Women's Hospital, Inc., priority 2019, dated 2026).

Tests used:
[1] = target: bovine serum albumin (BSA) (Bos taurus, UniProt P02769); test: equilibrium dialysis of albumin-phenytoin solution under focused ultrasound (FUS), HPLC of dialysate; type: in vitro ADME; conditions: for phenytoin level in dialysate: FUS 250 kHz, 55 ms TBD, 4 Hz PRF, 5 W/cm2 Isppa, 55 min; for elevation of unbound phenytoin level at the focus: p<0.05
Sequence of bovine serum albumin (BSA) (P02769 25-607): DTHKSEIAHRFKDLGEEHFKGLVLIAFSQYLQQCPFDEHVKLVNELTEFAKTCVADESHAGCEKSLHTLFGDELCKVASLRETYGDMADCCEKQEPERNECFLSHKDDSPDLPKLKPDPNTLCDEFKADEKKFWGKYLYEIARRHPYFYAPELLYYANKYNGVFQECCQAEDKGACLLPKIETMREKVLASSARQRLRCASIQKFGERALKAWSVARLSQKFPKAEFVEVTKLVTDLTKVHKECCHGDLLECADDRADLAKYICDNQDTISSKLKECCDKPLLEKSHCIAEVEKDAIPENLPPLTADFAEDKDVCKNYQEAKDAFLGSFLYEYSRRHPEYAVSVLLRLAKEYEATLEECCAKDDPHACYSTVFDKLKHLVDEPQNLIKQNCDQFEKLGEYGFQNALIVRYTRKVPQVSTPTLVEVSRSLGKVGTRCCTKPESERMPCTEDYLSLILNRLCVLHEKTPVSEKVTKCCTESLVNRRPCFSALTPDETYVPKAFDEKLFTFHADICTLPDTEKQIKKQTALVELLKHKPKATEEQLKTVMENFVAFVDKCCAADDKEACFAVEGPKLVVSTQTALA
Protocol: The ability of FUS to unbind phenytoin from albumin was assessed in this example by an equilibrium dialysis (ED), whereby the cocktail of albumin-phenytoin was sonicated, and unbound phenytoin was allowed to pass through the membrane to be collected and analyzed. As a part of in vitro testing, a visible dye, Toluidine Blue O, was dissolved in an aqueous solution of albumin and the spatial distribution of the degree of its unbinding from the albumin through the application of FUS was qualitatively evaluated via gel infiltration using agar gel block.
In this example, an in vitro experimental chamber was constructed using a 3D printer (clear resin) to measure the effects of FUS on albumin-phenytoin binding. The chamber includes four slots to place four microdialysis cassettes (7 kMW cut-off pore size; 4×4×0.8 cm; H×L×W) whereby one is placed perpendicular to the sonication focus (‘FF’), and three others are placed away from the focus (‘F01’ through ‘F03’). A FUS transducer having 13 mm focal length (away from the exit plane) and operating at a fundamental frequency of 250 kHz was used to sonicate the middle of the dialysis window (‘FF’). The output pressure wave from the transducer was calibrated for the input signal generator and the acoustic map perpendicular to the sonication axis was mapped using known methods. An identical setup was prepared separately and was not sonicated to provide a control.
In this example, bovine serum albumin (BSA) was dissolved in a phosphate-buffered saline (PBS) (pH7.4) at a concentration of 46 mg/mL concentration, and 200 mL of resulting solution was poured into the chamber. The experiment was conducted at a room temperature (20-21° C.) and the solution temperature was equilibrated at the ambient temperature. The solution was not degassed and kept the ambient gas content (O2 6.1 ppm; measured using dissolved oxygen meter). The wall of the chamber was padded with rubber inserts to absorb the incident acoustic waves to prevent reflection or reverberation within the chamber.
In this example, phenytoin was dissolved (15 μg/mL) in PBS having bovine serum albumin (BSA) concentration of 45 mg/mL to emulate the clinical serum concentration. The temperature of the solution was monitored during the sonication to examine the potential effect from the temperature of the solution on the bound phenytoin. The dialysis cassettes, after hydration according to known methods, were filled with PBS (0.5 ML) and were placed into the bath. Subsequently, sonication was given for 55 min at 250 kHz in pulsed manner (55 ms TBD, 4 Hz PRF, at 5 W/cm2 Isppa Spatial-Peak Pulse-Average Intensity, i.e. 22% duty cycle). The mechanical index (MI) of the focus was 0.8 (corresponding to peak negative pressure of 391 kPa). The temperature of the solution was monitored. […] The obtained samples underwent High Performance Liquid Chromatography (HPLC) for the measurement of phenytoin concentration after the calibration of the known absolute level of the phenytoin. The HPLC system consisted of an autosampler, a dual piston pump, and an electrochemical detector coupled to a guard cell and an analytical cell.

[2] = rat, in vivo
Protocol: In this example the effects of focused ultrasound (FUS) on unbinding phenytoin from albumin was evaluated in an animal model (rat). The enhancement of phenytoin was assessed using immunohistochemistry (IHC) followed by intraperitoneal injection of phenytoin and subsequent sonication of the unilateral hemisphere. All IHC was performed on an automated staining platform. Hematoxylin and eosin (H&E) staining was also performed to assess for tissue hemorrhage. The same sonication parameters and device were used as in the first example described above except the sonication was delivered for 35 minutes.
FUS was delivered to the brain areas in the right hemisphere at a fundamental frequency of 250 kHz in a pulsed manner (55 ms TBD, 4 Hz PRF, at 5 W/cm^2 Isppa) for 35 minutes. FIG. 4 illustrates example mosaic H&E microscope images 402, example, mosaic phenytoin-stained IHC images 404 and example inverted grayscale images 406 of the phenytoin IHC in accordance with an embodiment. […] In the IHC images 404, the dotted ovals 408 indicate the approximate location of the FUS sonication focus (in the right hemisphere of the brain).

[3] = system: plasma proteins, primarily albumin; conditions: cited from earlier work

phenytoin level in dialysate ([1]; at the acoustic focus (FF), n=6): 1.38 ± 0.2 µg/mL
elevation of unbound phenytoin level at the focus ([1]; compared to outside of focus): ~21.4%
elevation of unbound phenytoin level at the focus ([1]; compared to the control): approximately 27.7%
averaged phenytoin level in dialysate ([1]; control chamber (CTRL), not sonicated, n=12): 1.52 ± 0.16 µg/mL
phenytoin level in dialysate ([1]; outside of focus (FO), n=12): 1.13 ± 0.08 µg/mL
difference in phenytoin level between control condition and outside of focus ([1]; p>0.1): no significant difference
SMILES: O=C1NC(=O)C(c2ccccc2)(c2ccccc2)N1 [phenytoin]
tissue injury or hemorrhage (H&E) [2]: no evidence of tissue injury or hemorrhage
fraction available in an unbound state ([3]; at clinical dose): ~12%
binding level to plasma proteins ([3]; primarily to albumin): approximately 90%
